These results are taken from patent US10870647B2, “Imidazopyridine derivative, method for preparing same, and pharmaceutical composition containing same as active ingredient for preventing or treating cancer” (DAEGU-GYEONGBUK MEDICAL INNOVATION FOUNDATION, priority 2016, dated 2020).

Each structure is given as a SMILES string. Like-named read-outs stand apart in the source and are kept apart here.

Holding throughout (assay): Kinase selectivity, scanMAX Kinase assay panel (DiscoverX), % control at 1 uM
Common to all, as to type: binding

Assay [1] deals with T1, scanMAX Kinase assay panel (Homo sapiens, UniProt Q13164).
T1 construct: purchased DiscoverX
The settings on record: ERK5; 1 uM; read-out: Percent Control (%). In short, it runs like this:
(§1)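 Compounds were tested at 1 uM in DMSO against each enzyme in the panel. Percent control was calculated as (compound − positive control)/(negative control − positive control) × 100, and a compound was scored active on a kinase when this value fell below 35.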

The target of assay [2] is T2, scanMAX Kinase assay panel (Homo sapiens, UniProt P08922).
T2 construct: purchased DiscoverX
T2 sequence (P08922 28-2347): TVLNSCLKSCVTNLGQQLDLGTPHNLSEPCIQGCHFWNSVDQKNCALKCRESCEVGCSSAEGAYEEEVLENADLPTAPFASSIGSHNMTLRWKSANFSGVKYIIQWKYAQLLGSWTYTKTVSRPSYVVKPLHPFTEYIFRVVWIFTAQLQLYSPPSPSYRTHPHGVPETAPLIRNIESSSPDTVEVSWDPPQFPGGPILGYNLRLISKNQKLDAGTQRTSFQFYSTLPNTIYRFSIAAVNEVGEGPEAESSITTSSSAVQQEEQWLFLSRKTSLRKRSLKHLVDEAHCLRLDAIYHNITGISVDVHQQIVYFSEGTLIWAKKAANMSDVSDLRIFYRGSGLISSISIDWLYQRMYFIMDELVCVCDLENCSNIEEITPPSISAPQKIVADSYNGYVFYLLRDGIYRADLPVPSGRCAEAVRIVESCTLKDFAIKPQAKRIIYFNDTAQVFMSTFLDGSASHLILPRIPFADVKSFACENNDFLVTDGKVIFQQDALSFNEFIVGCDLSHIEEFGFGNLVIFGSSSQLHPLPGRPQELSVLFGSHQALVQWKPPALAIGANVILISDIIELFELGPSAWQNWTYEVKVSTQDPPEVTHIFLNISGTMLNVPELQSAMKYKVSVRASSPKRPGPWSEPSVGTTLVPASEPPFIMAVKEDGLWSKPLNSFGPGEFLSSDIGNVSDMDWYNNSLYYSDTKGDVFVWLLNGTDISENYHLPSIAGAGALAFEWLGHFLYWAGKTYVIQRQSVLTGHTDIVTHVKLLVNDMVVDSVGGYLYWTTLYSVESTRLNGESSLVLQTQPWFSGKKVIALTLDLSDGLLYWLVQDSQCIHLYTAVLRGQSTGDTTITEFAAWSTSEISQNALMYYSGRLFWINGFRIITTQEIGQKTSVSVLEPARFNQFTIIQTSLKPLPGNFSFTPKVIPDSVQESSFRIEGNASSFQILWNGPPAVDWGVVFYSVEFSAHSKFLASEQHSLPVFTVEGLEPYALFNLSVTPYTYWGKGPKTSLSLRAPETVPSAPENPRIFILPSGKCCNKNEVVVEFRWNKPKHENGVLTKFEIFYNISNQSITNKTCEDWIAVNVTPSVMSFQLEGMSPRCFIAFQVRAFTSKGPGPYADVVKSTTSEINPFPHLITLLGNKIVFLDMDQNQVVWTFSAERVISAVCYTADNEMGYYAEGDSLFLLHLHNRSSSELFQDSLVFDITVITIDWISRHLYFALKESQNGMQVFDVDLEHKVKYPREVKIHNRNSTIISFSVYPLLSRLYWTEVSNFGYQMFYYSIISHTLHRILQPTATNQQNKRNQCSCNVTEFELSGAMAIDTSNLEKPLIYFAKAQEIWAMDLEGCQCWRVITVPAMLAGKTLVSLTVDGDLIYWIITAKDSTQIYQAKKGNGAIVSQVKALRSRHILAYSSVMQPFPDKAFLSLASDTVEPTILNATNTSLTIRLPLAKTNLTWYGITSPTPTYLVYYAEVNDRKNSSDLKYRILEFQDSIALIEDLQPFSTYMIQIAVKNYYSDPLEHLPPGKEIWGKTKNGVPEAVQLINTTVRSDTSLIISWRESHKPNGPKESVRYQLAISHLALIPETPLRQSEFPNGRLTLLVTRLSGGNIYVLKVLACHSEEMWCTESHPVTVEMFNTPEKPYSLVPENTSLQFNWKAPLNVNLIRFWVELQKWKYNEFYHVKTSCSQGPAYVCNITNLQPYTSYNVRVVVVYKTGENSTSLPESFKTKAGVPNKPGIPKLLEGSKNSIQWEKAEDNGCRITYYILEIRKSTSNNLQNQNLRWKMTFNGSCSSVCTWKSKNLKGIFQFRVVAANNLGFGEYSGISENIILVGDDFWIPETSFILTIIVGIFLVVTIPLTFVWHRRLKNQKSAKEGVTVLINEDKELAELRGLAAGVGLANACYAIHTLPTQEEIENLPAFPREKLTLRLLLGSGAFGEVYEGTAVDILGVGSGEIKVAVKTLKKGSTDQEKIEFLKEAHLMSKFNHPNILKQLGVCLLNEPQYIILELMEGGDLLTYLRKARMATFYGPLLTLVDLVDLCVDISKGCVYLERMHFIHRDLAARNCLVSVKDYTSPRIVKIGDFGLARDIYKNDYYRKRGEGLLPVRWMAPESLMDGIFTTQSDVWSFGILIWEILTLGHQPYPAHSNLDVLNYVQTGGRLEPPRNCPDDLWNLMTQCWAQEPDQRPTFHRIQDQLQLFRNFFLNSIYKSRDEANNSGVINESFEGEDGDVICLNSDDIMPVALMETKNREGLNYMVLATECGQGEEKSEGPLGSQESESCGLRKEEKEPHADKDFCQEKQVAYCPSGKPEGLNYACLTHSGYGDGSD
The settings on record: ROS1; 1 uM; read-out: Percent Control (%). In outline: as §1

Assay [3] has as its target T3, scanMAX Kinase assay panel (Homo sapiens, UniProt Q15349).
T3 construct: purchased DiscoverX
The settings on record: 1 uM, read-out: Percent Control (%). In short, it runs like this: as §1

In assay [4] the target is T4, scanMAX Kinase assay panel (Homo sapiens, UniProt Q16620).
T4 construct: purchased DiscoverX
The following applies: TRKB; 1 uM; read-out: Percent Control (%). In short, it runs like this:
as §1

The target in assay [5] is T5, scanMAX Kinase assay panel (Homo sapiens, UniProt Q86Y07).
T5 construct: purchased DiscoverX
T5 sequence (Q86Y07 whole entry): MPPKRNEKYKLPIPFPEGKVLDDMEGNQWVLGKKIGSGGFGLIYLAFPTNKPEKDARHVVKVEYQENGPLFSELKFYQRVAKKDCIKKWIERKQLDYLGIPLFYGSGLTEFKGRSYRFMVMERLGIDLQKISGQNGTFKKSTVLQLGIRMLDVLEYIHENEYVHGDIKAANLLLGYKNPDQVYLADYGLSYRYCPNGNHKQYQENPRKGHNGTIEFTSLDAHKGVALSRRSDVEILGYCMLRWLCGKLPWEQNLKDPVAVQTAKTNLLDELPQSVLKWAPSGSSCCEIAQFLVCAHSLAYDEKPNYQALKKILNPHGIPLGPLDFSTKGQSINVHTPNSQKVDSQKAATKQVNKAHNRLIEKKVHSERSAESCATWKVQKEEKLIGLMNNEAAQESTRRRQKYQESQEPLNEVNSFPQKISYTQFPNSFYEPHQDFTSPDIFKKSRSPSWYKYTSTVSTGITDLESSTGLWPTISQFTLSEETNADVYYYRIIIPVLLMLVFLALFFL
The following applies: VRK2; 1 uM; read-out: Percent Control (%). In outline:
as §1

The target of assay [6] is T6, scanMAX Kinase assay panel (Mycobacterium tuberculosis, UniProt P9WI81).
T6 construct: purchased DiscoverX
T6 sequence (P9WI81 whole entry): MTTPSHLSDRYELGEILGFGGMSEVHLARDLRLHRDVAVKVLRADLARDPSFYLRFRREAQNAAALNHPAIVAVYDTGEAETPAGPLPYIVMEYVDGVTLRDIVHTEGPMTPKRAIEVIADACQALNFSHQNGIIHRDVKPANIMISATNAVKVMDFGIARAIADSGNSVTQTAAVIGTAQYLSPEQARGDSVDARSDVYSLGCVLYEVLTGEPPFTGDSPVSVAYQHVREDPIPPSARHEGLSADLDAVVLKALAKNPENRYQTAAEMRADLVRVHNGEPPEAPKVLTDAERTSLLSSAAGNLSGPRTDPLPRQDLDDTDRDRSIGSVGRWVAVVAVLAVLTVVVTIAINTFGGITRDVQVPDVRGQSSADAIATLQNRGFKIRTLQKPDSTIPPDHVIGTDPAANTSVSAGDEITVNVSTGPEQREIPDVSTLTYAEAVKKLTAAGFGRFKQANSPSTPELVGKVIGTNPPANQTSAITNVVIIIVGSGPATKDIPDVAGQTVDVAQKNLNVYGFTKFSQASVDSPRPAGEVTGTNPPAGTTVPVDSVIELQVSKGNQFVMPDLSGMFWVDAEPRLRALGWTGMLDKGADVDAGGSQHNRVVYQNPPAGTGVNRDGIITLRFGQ
The settings on record: read-out: Percent Control (%). In outline: as §1

The target in assay [7] is T7, scanMAX Kinase assay panel (Homo sapiens, UniProt P36896).
T7 construct: purchased DiscoverX
T7 sequence (P36896 24-505): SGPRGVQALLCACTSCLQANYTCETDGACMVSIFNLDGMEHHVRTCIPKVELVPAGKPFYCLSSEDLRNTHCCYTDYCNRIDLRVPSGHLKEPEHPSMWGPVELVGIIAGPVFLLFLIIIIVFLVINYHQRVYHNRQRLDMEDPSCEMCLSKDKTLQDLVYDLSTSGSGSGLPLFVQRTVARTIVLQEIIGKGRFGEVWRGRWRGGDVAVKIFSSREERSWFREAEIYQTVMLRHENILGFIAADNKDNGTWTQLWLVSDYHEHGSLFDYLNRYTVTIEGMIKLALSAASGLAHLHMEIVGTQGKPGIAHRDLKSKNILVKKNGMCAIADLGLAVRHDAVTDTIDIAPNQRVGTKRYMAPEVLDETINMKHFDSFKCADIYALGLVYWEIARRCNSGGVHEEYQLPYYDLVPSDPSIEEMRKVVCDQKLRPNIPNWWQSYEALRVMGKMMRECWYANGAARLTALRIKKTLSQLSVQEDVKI
The settings on record: ACVR1B; 1 uM; read-out: Percent Control (%). In outline: as §1

Assay [8] has as its target T8, scanMAX Kinase assay panel (Homo sapiens, UniProt Q9H2G2).
T8 construct: purchased DiscoverX
The following applies: SLK; 1 uM; read-out: Percent Control (%). In short, it runs like this:
as §1

The target of assay [9] is T9, scanMAX Kinase assay panel (Homo sapiens, UniProt P20794).
T9 construct: purchased DiscoverX
T9 sequence (P20794 1-623): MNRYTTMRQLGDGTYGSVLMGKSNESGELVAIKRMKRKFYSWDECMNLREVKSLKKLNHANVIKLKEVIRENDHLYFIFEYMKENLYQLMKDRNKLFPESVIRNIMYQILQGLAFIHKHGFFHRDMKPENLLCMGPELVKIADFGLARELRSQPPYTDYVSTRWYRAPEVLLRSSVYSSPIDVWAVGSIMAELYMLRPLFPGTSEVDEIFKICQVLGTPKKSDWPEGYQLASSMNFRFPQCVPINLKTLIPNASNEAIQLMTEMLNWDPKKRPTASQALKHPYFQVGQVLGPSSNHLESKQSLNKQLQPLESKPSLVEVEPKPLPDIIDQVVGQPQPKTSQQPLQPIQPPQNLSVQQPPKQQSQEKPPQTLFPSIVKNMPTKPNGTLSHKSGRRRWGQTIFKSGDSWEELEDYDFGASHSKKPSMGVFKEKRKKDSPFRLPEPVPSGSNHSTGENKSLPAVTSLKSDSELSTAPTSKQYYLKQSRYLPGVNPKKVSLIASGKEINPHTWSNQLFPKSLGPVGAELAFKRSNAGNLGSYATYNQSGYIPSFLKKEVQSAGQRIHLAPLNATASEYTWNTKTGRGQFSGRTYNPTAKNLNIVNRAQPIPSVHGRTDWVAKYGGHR
The settings on record: MAK; 1 uM; read-out: Percent Control (%). In short, it runs like this: as §1

Assay [10] concerns the target T10, scanMAX Kinase assay panel (Homo sapiens, UniProt P49336).
T10 construct: purchased DiscoverX
The settings on record: CDK8; 1 uM; read-out: Percent Control (%). In short, it runs like this: as §1

For assay [11], the target named is T11, scanMAX Kinase assay panel (Homo sapiens, UniProt Q8TD08).
T11 construct: purchased DiscoverX
T11 sequence (Q8TD08 1-544): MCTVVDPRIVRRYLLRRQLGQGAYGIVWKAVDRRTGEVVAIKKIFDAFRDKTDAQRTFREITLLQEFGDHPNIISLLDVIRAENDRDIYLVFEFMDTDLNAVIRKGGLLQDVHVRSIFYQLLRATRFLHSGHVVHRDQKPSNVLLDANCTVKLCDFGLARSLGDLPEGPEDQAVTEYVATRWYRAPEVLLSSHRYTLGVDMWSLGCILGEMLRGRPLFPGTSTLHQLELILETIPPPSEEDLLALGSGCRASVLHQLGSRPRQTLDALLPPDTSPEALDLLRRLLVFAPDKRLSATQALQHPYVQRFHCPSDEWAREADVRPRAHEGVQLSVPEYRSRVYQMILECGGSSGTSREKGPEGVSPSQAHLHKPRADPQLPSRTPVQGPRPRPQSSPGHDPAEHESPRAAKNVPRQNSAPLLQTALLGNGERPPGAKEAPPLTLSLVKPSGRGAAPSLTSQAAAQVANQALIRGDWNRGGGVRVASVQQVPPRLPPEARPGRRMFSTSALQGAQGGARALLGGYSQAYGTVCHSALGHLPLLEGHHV
The following applies: ERK8; 1 uM; read-out: Percent Control (%). In outline:
as §1

T3 sequence (Q15349 whole entry): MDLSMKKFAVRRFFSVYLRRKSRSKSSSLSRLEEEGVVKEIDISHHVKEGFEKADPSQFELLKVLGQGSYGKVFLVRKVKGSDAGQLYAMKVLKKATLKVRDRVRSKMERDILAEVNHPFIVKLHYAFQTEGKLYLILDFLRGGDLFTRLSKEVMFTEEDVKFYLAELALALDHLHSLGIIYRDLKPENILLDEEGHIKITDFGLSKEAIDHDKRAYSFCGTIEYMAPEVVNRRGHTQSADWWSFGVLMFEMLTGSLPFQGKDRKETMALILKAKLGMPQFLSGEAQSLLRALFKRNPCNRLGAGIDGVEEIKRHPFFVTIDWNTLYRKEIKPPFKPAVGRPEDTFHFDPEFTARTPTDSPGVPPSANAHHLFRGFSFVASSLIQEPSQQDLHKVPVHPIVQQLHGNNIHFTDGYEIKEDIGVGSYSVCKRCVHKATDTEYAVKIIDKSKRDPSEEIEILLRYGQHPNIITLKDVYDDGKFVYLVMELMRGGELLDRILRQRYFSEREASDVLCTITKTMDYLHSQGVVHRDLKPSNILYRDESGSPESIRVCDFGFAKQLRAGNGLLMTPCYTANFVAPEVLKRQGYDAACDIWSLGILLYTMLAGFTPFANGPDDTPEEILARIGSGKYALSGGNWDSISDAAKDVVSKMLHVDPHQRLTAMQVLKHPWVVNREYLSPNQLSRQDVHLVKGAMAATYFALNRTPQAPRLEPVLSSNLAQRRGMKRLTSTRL
T10 sequence (P49336 whole entry): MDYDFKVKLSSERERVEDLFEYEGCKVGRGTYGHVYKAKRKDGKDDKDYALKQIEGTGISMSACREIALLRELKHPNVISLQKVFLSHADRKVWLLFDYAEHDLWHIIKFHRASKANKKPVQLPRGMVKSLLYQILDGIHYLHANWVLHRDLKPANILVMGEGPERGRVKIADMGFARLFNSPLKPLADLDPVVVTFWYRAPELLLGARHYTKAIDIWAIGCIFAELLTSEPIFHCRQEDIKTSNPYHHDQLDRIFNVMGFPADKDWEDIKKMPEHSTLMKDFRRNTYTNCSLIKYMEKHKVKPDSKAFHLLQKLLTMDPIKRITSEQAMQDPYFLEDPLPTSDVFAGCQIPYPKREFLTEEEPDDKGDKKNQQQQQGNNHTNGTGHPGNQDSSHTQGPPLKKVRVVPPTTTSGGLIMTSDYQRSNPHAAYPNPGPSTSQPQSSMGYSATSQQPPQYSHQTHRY

Regarding `Cc1ccc(C(=O)Nc2ccc(CN3CCN(C)CC3)c(C(F)(F)F)c2)cc1C#Cc1cnc2c(Nc3cnn(C)c3)cccn12` [Example 1, 4-methyl-3-((8-((1-methyl-1H-pyrazol-4-yl)amino)imidazo[1,2-a]pyridin-3-yl)ethynyl)-N-(4-((4-methylpiperazin-1-yl)methyl)-3-(trifluoromethyl)phenyl)benzamide], the remaining binding at 1 µM in assay [1] was found to be 78%; in [2] it was 39%; in assay [3] (RSK3 (Kin.Dom.1-N-terminal)), 29%; in assay [3] (RSK3 (Kin.Dom.2-C-terminal)) it was 61%; in [4], 0%; in [5] it was 86%. The remaining binding at 1 µM in assay [6] amounted to 95%; in assay [7], 89%; in assay [8], 0%; in assay [9] it was 10%; in [10], 4%; in assay [11], 29%.
For the compound `Cc1cn(-c2cc(NC(=O)c3ccc(C)c(C#Cc4cnc5c(Nc6cnn(C)c6)cccn45)c3)cc(C(F)(F)F)c2)cn1` [Example 12, 4-methyl-N-(3-(4-methyl-1H-imidazol-1-yl)-5-(trifluoromethyl)phenyl)-3-((8-((1-methyl-1H-pyrazol-4-yl)amino)imidazo[1,2-a]pyridin-3-yl)ethynyl)benzamide], the remaining binding at 1 µM stood at 90% in assay [1]; 51% in assay [2]; 65% in [3] (RSK3 (Kin.Dom.1-N-terminal)); 86% in [3] (RSK3 (Kin.Dom.2-C-terminal)); 16% in [4]; 100% in assay [5]. Moreover, the remaining binding at 1 µM was 100% in assay [6]; 94% in [7]; 5% in assay [8]; 81% in [9]; 31% in assay [10]; 71% in [11].
Take `Cc1ccc(NC(=O)C2(C(=O)Nc3ccc(F)cc3)CC2)cc1C#Cc1cnc2c(Nc3cnn(C(C)C)c3)cccn12` [Example 78]: the remaining binding at 1 µM in assay [1] stood at 100%; in assay [2] it was 92%; in assay [3] (RSK3 (Kin.Dom.1-N-terminal)), 97%; in assay [3] (RSK3 (Kin.Dom.2-C-terminal)) it was 100%; in assay [4], 89%; in [5] it was 100%. The remaining binding at 1 µM in [6] is 97%; in assay [7], 100%; in assay [8], 11%; in assay [9], 100%; in assay [10], 100%; in assay [11], 87%.
